Drawing on ChEMBL document CHEMBL1121822, “Sulfonate analogues of adenosine nucleotides as inhibitors of nucleotide-binding enzymes” (J Med Chem, 1981), this text covers Inhibition constant for 6 compounds.

The target of this experiment is Alcohol dehydrogenase (Equus caballus, UniProt P00327+P00328). Description: Inhibition constant was evaluated against horse liver alcohol dehydrogenase.
The compound `Nc1ncnc2c1ncn2CCCS(=O)(=O)O` registered an Inhibition constant of 4.9 mM.

As to `Nc1ncnc2c1ncn2CCS(=O)(=O)O`, the Inhibition constant is listed as 4.3 mM. The figure for `Nc1ncnc2c1ncn2C1O[C@H](CO)[C@H](S(=O)(=O)O)[C@H]1O` (stereo partly specified) is 1.2 mM; for `Nc1ncnc2c1ncn2C1O[C@H](CS(=O)(=O)O)[C@@H](O)[C@H]1O` (stereo partly specified) it is 0.18 mM; for `COP(=O)(O)OC[C@H]1OC(n2cnc3c(N)ncnc32)[C@H](O)[C@@H]1O` (stereo partly specified) it is 0.44 mM. The same measure for `Nc1ncnc2c1ncn2[C@@H]1O[C@H](COP(=O)(O)O)[C@@H](O)[C@H]1O` [ADENOSINE PHOSPHATE]: 0.038 mM.
